Laboratory results reported in US20040043417A1, “Generation and screening of a dynamic combinatorial library” (priority 2000, published 2004).

Target: Concanavalin A (Canavalia ensiformis, UniProt P02866)
Assay: Screening of acyl hydrazone libraries against Concanavalin A, competitive binding assay
Procedure: The library was then made up of one part (40 μL) of each of these solutions, buffered with sodium acetate buffer (50 μL, 1 M, pH 4.0), and diluted with water (510 μL) to a final concentration of 1 mM of each building block, and 50 mM buffer. The resulting libraries were allowed to equilibrate for one week at room temperature to assure complete reaction, and used directly, or following concentration/dilution, in the subsequent screening tests.

Structure (SMILES): NNC(=O)CCCCCCCCC(=O)NN [SED, sebacoyldihydrazide]
- contribution of building block to the binding to Concanavalin A: important contributions to the binding
